{
  "source": "patent US9340535B2",
  "about": "“N-[5-(Aminosulfony1)-4-methyl-1,3-thiazol-2-yl]-N-methyl-2-[4-(2-pyridinyl)phenyl]acetamide mesylate monohydrate” (AiCuris GmbH & Co. KG, priority 2011, dated 2016)",
  "key": {"[1]": {"assay": "Thermal analysis and polymorphic stability (DSC, TGA)", "format": "physicochemical", "protocol": "Polymorphism refers to the ability of a solid material to exist in more than one crystal structure or solid form.\nUpon mild heating (about 50° C. to 60° C.), the water content is reduced which would make these salts and the free base form extremely difficult to handle and to process during production and formulation. In contrast the hydrate of the mono mesylate salt is thermally stable and polymorphic stable at much higher temperatures of considerably above 100° C. as judged by TGA.\nMoreover, exactly one mol equivalent water is incorporated into the crystal structure wherein the hydrogen atoms of the water molecule form hydrogen bridges with oxygen atoms of two different mesylate molecules. This well-defined position in the crystal lattice (see FIG. 3) is verified by the fact that water is released from the crystal only at high temperature, starting at 160° C."}, "[2]": {"assay": "Crystallinity by X-ray diffraction, microscopy", "format": "physicochemical", "details": "X-ray diffraction, microscopy"}, "[3]": {"assay": "Exposure in 26-week repeated dose toxicity study (mesylate monohydrate)", "format": "in vivo", "details": "rats; for Cmax / AUC(0-t): rat, in vivo; for AUC(0-t): read-out: AUC(0-24); for Exposure ratio 26-wts/13-wts. AUC(0-24) / Exposure ratio 26-wts/13-wts. Cmax: day 1, mesylate monohydrate vs free base; for Exposure ratio 26-wts/13-wts AUC(0-24) / Exposure ratio 26-wts/13-wts Cmax: week 13, mesylate monohydrate vs free base", "procedure": "The exposure of rats to N-[5-(aminosulfonyl)-4-methyl-1,3-thiazol-2-yl]-N-methyl-2-[4-(2-pyridinyl)phenyl]acetamide in a repeated dose 13-week toxicity study performed with the free base N-[5-(aminosulfonyl)-4-methyl-1,3-thiazol-2-yl]-N-methyl-2-[4-(2-pyridinyl)phenyl]acetamide (free base) was compared to the exposures observed in a 26-week repeated dose toxicity study performed with the mesylate monohydrate. In both studies, the test items were administered as 0.5% (w/v) tylose suspensions, and the concentrations were adjusted to the equivalents of free base N-[5-(aminosulfonyl)-4-methyl-1,3-thiazol-2-yl]-N-methyl-2-[4-(2-pyridinyl)phenyl]acetamide."}, "Long term stability": {"assay": "Long term stability", "format": "physicochemical", "details": "in comparison to the free base form"}, "[4]": {"assay": "Pharmacokinetics, single and multiple dose applications in healthy volunteers", "format": "in vivo, humans", "source_text": "The plasma concentrations in humans exceeded those reached in in vivo and in vitro experiments sufficient to effectively treat herpes simplex virus infections in various animal models and to prevent viral replication in cell culture."}, "herpes simplex viruses": {"system": "herpes simplex viruses", "assay": "Activity against herpes viruses", "details": "mainly herpes simplex viruses"}, "[5]": {"assay": "Water solubility, solubility screening", "details": "water"}, "[6]": {"assay": "Stability to decomposition: storage at 90° C. for one week"}, "[7]": {"assay": "Stability to dissociation: stirring for one week at room temperature"}, "[8]": {"details": "female, 10 mg/kg/day, F, 10 mg/kg/day, day 1, 26-week toxicity study"}, "[9]": {"details": "female, 50 mg/kg/day, F, 50 mg/kg/day, day 1, 26-week toxicity study"}, "[10]": {"details": "female, 250 mg/kg/day, F, 250 mg/kg/day, day 1, 26-week toxicity study"}, "[11]": {"details": "male, 10 mg/kg/day, M, 10 mg/kg/day, day 1, 26-week toxicity study"}, "[12]": {"details": "male, 50 mg/kg/day, M, 50 mg/kg/day, day 1, 26-week toxicity study"}, "[13]": {"details": "male, 250 mg/kg/day, M, 250 mg/kg/day, day 1, 26-week toxicity study"}, "[14]": {"details": "mesylate monohydrate vs free base, 50 and 250 mg/kg/day"}},
  "note": "Like-named read-outs stand apart in the source and are kept apart here.",
  "data": [
    {"molecule": "CS(=O)(=O)O.Cc1nc(N(C)C(=O)Cc2ccc(-c3ccccn3)cc2)sc1S(N)(=O)=O.O", "note": "[Mesylate monohydrate, N-[5-(aminosulfonyl)-4-methyl-1,3-thiazol-2-yl]-N-methyl-2-[4-(2-pyridinyl)-phenyl]acetamide methanesulfonate monohydrate]", "values": [
      {"measurement": "Thermal stability of hydrate", "setting": "[1]", "value": "stable"},
      {"measurement": "DSC", "setting": "[1]; Differential Scanning Calorimetry", "value": "loss of water before melting"},
      {"measurement": "TGA", "setting": "[1]; Thermogravimetric Analysis", "value": 4.3, "unit": "%"},
      {"measurement": "Temperature at which the hydrate is thermally and polymorphic stable", "setting": "[1]; as judged by TGA", "value": "above 100 °C"},
      {"measurement": "Temperature at which water is released from the crystal", "setting": "[1]; starting temperature", "value": "≥ 160", "unit": "°C"},
      {"measurement": "Crystallinity", "setting": "[2]", "value": "+"},
      {"measurement": "Cmax", "setting": "[3]; [8]", "value": 17.2, "unit": "µg/mL"},
      {"measurement": "AUC(0-t)", "setting": "[3]; [8]", "value": 175, "unit": "µg·h/mL"},
      {"measurement": "AUC(0-t)", "setting": "[3]; female, 10 mg/kg/day, F, 10 mg/kg/day, week 13, 26-week toxicity study", "value": 321, "unit": "µg·h/mL"},
      {"measurement": "Cmax", "setting": "[3]; female, 10 mg/kg/day, F, week 13, 26-week toxicity study", "value": 26, "unit": "µg/mL"},
      {"measurement": "Cmax", "setting": "[3]; [9]", "value": 77.8, "unit": "µg/mL"},
      {"measurement": "AUC(0-t)", "setting": "[3]; [9]", "value": 913, "unit": "µg·h/mL"},
      {"measurement": "AUC(0-t)", "setting": "[3]; female, 50 mg/kg/day, F, 50 mg/kg/day, week 13, 26-week toxicity study", "value": 1210, "unit": "µg·h/mL"},
      {"measurement": "Cmax", "setting": "[3]; female, 50 mg/kg/day, F, week 13, 26-week toxicity study", "value": 106, "unit": "µg/mL"},
      {"measurement": "Cmax", "setting": "[3]; [10]", "value": 146, "unit": "µg/mL"},
      {"measurement": "AUC(0-t)", "setting": "[3]; [10]", "value": 2470, "unit": "µg·h/mL"},
      {"measurement": "AUC(0-t)", "setting": "[3]; female, 250 mg/kg/day, F, 250 mg/kg/day, week 13, 26-week toxicity study", "value": 3580, "unit": "µg·h/mL"},
      {"measurement": "Cmax", "setting": "[3]; female, 250 mg/kg/day, F, week 13, 26-week toxicity study", "value": 217, "unit": "µg/mL"},
      {"measurement": "Cmax", "setting": "[3]; [11]", "value": 16.9, "unit": "µg/mL"},
      {"measurement": "AUC(0-t)", "setting": "[3]; [11]", "value": 119, "unit": "µg·h/mL"},
      {"measurement": "AUC(0-t)", "setting": "[3]; male, 10 mg/kg/day, M, 10 mg/kg/day, week 13, 26-week toxicity study", "value": 227, "unit": "µg·h/mL"},
      {"measurement": "Cmax", "setting": "[3]; male, 10 mg/kg/day, M, week 13, 26-week toxicity study", "value": 21.8, "unit": "µg/mL"},
      {"measurement": "Cmax", "setting": "[3]; [12]", "value": 70.3, "unit": "µg/mL"},
      {"measurement": "AUC(0-t)", "setting": "[3]; [12]", "value": 634, "unit": "µg·h/mL"},
      {"measurement": "AUC(0-t)", "setting": "[3]; male, 50 mg/kg/day, M, 50 mg/kg/day, week 13, 26-week toxicity study", "value": 959, "unit": "µg·h/mL"},
      {"measurement": "Cmax", "setting": "[3]; male, 50 mg/kg/day, M, week 13, 26-week toxicity study", "value": 74.7, "unit": "µg/mL"},
      {"measurement": "Cmax", "setting": "[3]; [13]", "value": 134, "unit": "µg/mL"},
      {"measurement": "AUC(0-t)", "setting": "[3]; [13]", "value": 1980, "unit": "µg·h/mL"},
      {"measurement": "AUC(0-t)", "setting": "[3]; male, 250 mg/kg/day, M, 250 mg/kg/day, week 13, 26-week toxicity study", "value": 2780, "unit": "µg·h/mL"},
      {"measurement": "Cmax", "setting": "[3]; male, 250 mg/kg/day, M, week 13, 26-week toxicity study", "value": 169, "unit": "µg/mL"},
      {"measurement": "Exposure ratio 26-wts/13-wts. AUC(0-24)", "setting": "[3]; F, 10 mg/kg/day", "value": 1.1},
      {"measurement": "Exposure ratio 26-wts/13-wts. Cmax", "setting": "[3]; F, 10 mg/kg/day", "value": 1.1},
      {"measurement": "Exposure ratio 26-wts/13-wts AUC(0-24)", "setting": "[3]; F, 10 mg/kg/day", "value": 1.5},
      {"measurement": "Exposure ratio 26-wts/13-wts Cmax", "setting": "[3]; F, 10 mg/kg/day", "value": 1.0},
      {"measurement": "Exposure ratio 26-wts/13-wts. AUC(0-24)", "setting": "[3]; F, 50 mg/kg/day", "value": 2.2},
      {"measurement": "Exposure ratio 26-wts/13-wts. Cmax", "setting": "[3]; F, 50 mg/kg/day", "value": 2.2},
      {"measurement": "Exposure ratio 26-wts/13-wts AUC(0-24)", "setting": "[3]; F, 50 mg/kg/day", "value": 2.6},
      {"measurement": "Exposure ratio 26-wts/13-wts Cmax", "setting": "[3]; F, 50 mg/kg/day", "value": 2.6},
      {"measurement": "Exposure ratio 26-wts/13-wts. AUC(0-24)", "setting": "[3]; F, 250 mg/kg/day", "value": 2.6},
      {"measurement": "Exposure ratio 26-wts/13-wts. Cmax", "setting": "[3]; F, 250 mg/kg/day", "value": 2.1},
      {"measurement": "Exposure ratio 26-wts/13-wts AUC(0-24)", "setting": "[3]; F, 250 mg/kg/day", "value": 3.1},
      {"measurement": "Exposure ratio 26-wts/13-wts Cmax", "setting": "[3]; F, 250 mg/kg/day", "value": 2.6},
      {"measurement": "Exposure ratio 26-wts/13-wts. AUC(0-24)", "setting": "[3]; M, 10 mg/kg/day", "value": 1.4},
      {"measurement": "Exposure ratio 26-wts/13-wts. Cmax", "setting": "[3]; M, 10 mg/kg/day", "value": 1.3},
      {"measurement": "Exposure ratio 26-wts/13-wts AUC(0-24)", "setting": "[3]; M, 10 mg/kg/day", "value": 1.7},
      {"measurement": "Exposure ratio 26-wts/13-wts Cmax", "setting": "[3]; M, 10 mg/kg/day", "value": 1.5},
      {"measurement": "Exposure ratio 26-wts/13-wts. AUC(0-24)", "setting": "[3]; M, 50 mg/kg/day", "value": 2.6},
      {"measurement": "Exposure ratio 26-wts/13-wts. Cmax", "setting": "[3]; M, 50 mg/kg/day", "value": 2.3},
      {"measurement": "Exposure ratio 26-wts/13-wts AUC(0-24)", "setting": "[3]; M, 50 mg/kg/day", "value": 2.9},
      {"measurement": "Exposure ratio 26-wts/13-wts Cmax", "setting": "[3]; M, 50 mg/kg/day", "value": 2.5},
      {"measurement": "Exposure ratio 26-wts/13-wts. AUC(0-24)", "setting": "[3]; M, 250 mg/kg/day", "value": 3.5},
      {"measurement": "Exposure ratio 26-wts/13-wts. Cmax", "setting": "[3]; M, 250 mg/kg/day", "value": 2.5},
      {"measurement": "Exposure ratio 26-wts/13-wts AUC(0-24)", "setting": "[3]; M, 250 mg/kg/day", "value": 4.2},
      {"measurement": "Exposure ratio 26-wts/13-wts Cmax", "setting": "[3]; M, 250 mg/kg/day", "value": 2.7},
      {"measurement": "Increase in extent of exposure, AUC", "setting": "[3]; [14]", "value": "≤ 4", "unit": "fold"},
      {"measurement": "Increase in extent of exposure, Cmax", "setting": "[3]; [14]", "value": "up to 2.7 fold"},
      {"measurement": "Long term stability", "setting": "Long term stability", "value": "superior"},
      {"measurement": "Plasma half lives", "setting": "[4]", "value": "long lasting half lives"},
      {"measurement": "Activity against herpes viruses", "setting": "herpes simplex viruses", "value": "highly active"},
      {"measurement": "solubility", "setting": "[5]", "value": 1380, "unit": "µg/mL"},
      {"measurement": "Stability to decomposition", "setting": "[6]", "value": "++"},
      {"measurement": "Stability to dissociation", "setting": "[7]", "value": "++"}
    ]}
  ]
}
